# In article PMC5218480 (PLoS ONE, 2017):
# Test system: MV-4-11 cells
# Experiment: Gene expression microarray analysis (Affymetrix PrimeView) and GSEA
# Assay type: cell-based, human
# Design: RFU PODN (11730768_x_at) / Fold change /veh PODN (11730768_x_at) / RFU LINC00158 (11744669_a_at) / Fold change /veh LINC00158 (11744669_a_at) / RFU DUSP10 (11751237_a_at) / Fold change /veh DUSP10 (11751237_a_at) / RFU ID3 (11757404_x_at) / Fold change /veh ID3 (11757404_x_at) / RFU PLEKHG5 (11737974_s_at) / Fold change /veh PLEKHG5 (11737974_s_at) / RFU LRRC4B (11730491_at) / Fold change /veh LRRC4B (11730491_at) / RFU GIMAP4 (11747438_a_at) / Fold change /veh GIMAP4 (11747438_a_at) / RFU KRT8 (11758183_x_at) / Fold change /veh KRT8 (11758183_x_at) / RFU CNN1 (11734310_a_at) / Fold change /veh CNN1 (11734310_a_at) / RFU VPS37D (11726825_at) / Fold change /veh VPS37D (11726825_at) / RFU C10orf10 (11716522_x_at) / Fold change /veh C10orf10 (11716522_x_at) / RFU KIR2DL2 /// KIR2DL4 /// KIR2DL5A /// KIR2DL5B /// KIR2DS1 /// KIR2DS2 /// KIR2DS3 /// KIR2DS4 /// KIR3DL3 /// KIR3DL3 /// KIR3DS1 (11738374_at) / Fold change /veh KIR2DL2 /// KIR2DL4 /// KIR2DL5A /// KIR2DL5B /// KIR2DS1 /// KIR2DS2 /// KIR2DS3 /// KIR2DS4 /// KIR3DL3 /// KIR3DL3 /// KIR3DS1 (11738374_at) / RFU C1QL1 (11718748_at) / Fold change /veh C1QL1 (11718748_at) / RFU TMPRSS4 (11747572_a_at) / Fold change /veh TMPRSS4 (11747572_a_at) / RFU HAMP (11756126_x_at) / Fold change /veh HAMP (11756126_x_at) / RFU RNFT2 (11725882_a_at) / Fold change /veh RNFT2 (11725882_a_at) / RFU NR4A2 (11747474_a_at) / Fold change /veh NR4A2 (11747474_a_at) / RFU ABCC12 (11746883_a_at) / Fold change /veh ABCC12 (11746883_a_at) / RFU TMEM136 (11760407_x_at) / Fold change /veh TMEM136 (11760407_x_at) / RFU CLDN22 /// WWC2 (11732394_at) / Fold change /veh CLDN22 /// WWC2 (11732394_at) / RFU HLA-DPB1 (11760878_x_at) / Fold change /veh HLA-DPB1 (11760878_x_at) / RFU SPINT1 (11716480_a_at) / Fold change /veh SPINT1 (11716480_a_at) / RFU GAP43 (11754022_s_at) / Fold change /veh GAP43 (11754022_s_at) / RFU A4GNT (11735810_at) / Fold change /veh A4GNT (11735810_at) / RFU PRB3 (11715151_x_at) / Fold change /veh PRB3 (11715151_x_at) / RFU TUBB4B (11761932_at) / Fold change /veh TUBB4B (11761932_at) / RFU CAPN14 (11732068_a_at) / Fold change /veh CAPN14 (11732068_a_at) / RFU TMCC2 (11721928_a_at) / Fold change /veh TMCC2 (11721928_a_at) / RFU IRGQ (11745062_a_at) / Fold change /veh IRGQ (11745062_a_at) / RFU FAM174B (11720279_a_at) / Fold change /veh FAM174B (11720279_a_at) / RFU TMPRSS4 (11748680_a_at) / Fold change /veh TMPRSS4 (11748680_a_at) / RFU FAM212B (11763350_a_at) / Fold change /veh FAM212B (11763350_a_at) / RFU PLEKHG5 (11743358_a_at) / Fold change /veh PLEKHG5 (11743358_a_at) / RFU ZSCAN30 (11745921_a_at) / Fold change /veh ZSCAN30 (11745921_a_at) / RFU CMKLR1 (11741424_a_at) / Fold change /veh CMKLR1 (11741424_a_at) / RFU LOC101060620 /// MAPK8IP1 (11723275_at) / Fold change /veh LOC101060620 /// MAPK8IP1 (11723275_at) / RFU SPTSSB (11747773_x_at) / Fold change /veh SPTSSB (11747773_x_at) / RFU PRSS12 (11739890_at) / Fold change /veh PRSS12 (11739890_at) / RFU BIN1 (11741810_x_at) / Fold change /veh BIN1 (11741810_x_at) / RFU WNT11 (11732464_a_at) / Fold change /veh WNT11 (11732464_a_at) / RFU C10orf10 (11716521_a_at) / Fold change /veh C10orf10 (11716521_a_at) / RFU C5orf56 (11738089_at) / Fold change /veh C5orf56 (11738089_at) / RFU CYB561 (11721691_x_at) / Fold change /veh CYB561 (11721691_x_at) / RFU ANKRD19P (11752326_a_at) / Fold change /veh ANKRD19P (11752326_a_at) / RFU OR2T12 /// OR2T33 /// OR2T8 (11738714_s_at) / Fold change /veh OR2T12 /// OR2T33 /// OR2T8 (11738714_s_at) / RFU VCAN (11748164_a_at) / Fold change /veh VCAN (11748164_a_at) / RFU JSRP1 (11732532_at) / Fold change /veh JSRP1 (11732532_at) / RFU KRTAP10-11 (11738290_x_at) / Fold change /veh KRTAP10-11 (11738290_x_at) / RFU MYO3A (11730013_a_at) / Fold change /veh MYO3A (11730013_a_at) / RFU EBF3 (11725865_a_at) / Fold change /veh EBF3 (11725865_a_at) / RFU CAMK2N1 (11719241_x_at) / Fold change /veh CAMK2N1 (11719241_x_at) / RFU C5orf56 (11738088_a_at) / Fold change /veh C5orf56 (11738088_a_at) / RFU OLFML3 (11715873_a_at) / Fold change /veh OLFML3 (11715873_a_at) / RFU LOC100653217 /// NTM (11731650_a_at) / Fold change /veh LOC100653217 /// NTM (11731650_a_at) / RFU MAPK11 (11762145_a_at) / Fold change /veh MAPK11 (11762145_a_at) / RFU FIZ1 (11724087_x_at) / Fold change /veh FIZ1 (11724087_x_at) / RFU OASL (11726364_x_at) / Fold change /veh OASL (11726364_x_at) / RFU SOX15 (11748057_x_at) / Fold change /veh SOX15 (11748057_x_at) / RFU CD79A (11719716_a_at) / Fold change /veh CD79A (11719716_a_at) / RFU HIST1H1D (11736915_at) / Fold change /veh HIST1H1D (11736915_at) / RFU CASKIN2 (11723855_a_at) / Fold change /veh CASKIN2 (11723855_a_at) / RFU LOC730098 (11760151_x_at) / Fold change /veh LOC730098 (11760151_x_at) / RFU OR4N2 (11742367_at) / Fold change /veh OR4N2 (11742367_at) / RFU PRRT2 (11749266_a_at) / Fold change /veh PRRT2 (11749266_a_at) / RFU SNX32 (11753110_a_at) / Fold change /veh SNX32 (11753110_a_at) / RFU CDHR5 (11726645_a_at) / Fold change /veh CDHR5 (11726645_a_at) / RFU RCAN1 (11760418_a_at) / Fold change /veh RCAN1 (11760418_a_at) / RFU FAM167A (11723789_a_at) / Fold change /veh FAM167A (11723789_a_at) / RFU FAM26E (11764081_at) / Fold change /veh FAM26E (11764081_at) / RFU ISYNA1 (11749810_s_at) / Fold change /veh ISYNA1 (11749810_s_at) / RFU ACY1 (11761880_at) / Fold change /veh ACY1 (11761880_at) / RFU 11764098_at / Fold change /veh 11764098_at / RFU SAMD14 (11745864_x_at) / Fold change /veh SAMD14 (11745864_x_at) / RFU NPB (11741838_a_at) / Fold change /veh NPB (11741838_a_at) / RFU TMPRSS6 (11731388_a_at) / Fold change /veh TMPRSS6 (11731388_a_at) / RFU KRTAP10-2 (11738614_at) / Fold change /veh KRTAP10-2 (11738614_at) / RFU ARHGAP8 /// PRR5-ARHGAP8 (11727945_x_at) / Fold change /veh ARHGAP8 /// PRR5-ARHGAP8 (11727945_x_at) / RFU KRTAP5-7 /// NADSYN1 (11734609_at) / Fold change /veh KRTAP5-7 /// NADSYN1 (11734609_at) / RFU RASL12 (11751679_a_at) / Fold change /veh RASL12 (11751679_a_at) / RFU CDKN2B (11736163_a_at) / Fold change /veh CDKN2B (11736163_a_at) / RFU PRF1 (11729649_at) / Fold change /veh PRF1 (11729649_at) / RFU, ZNF638 /// ZNF638-IT1 / Fold change vs veh, ZNF638 /// ZNF638-IT1 / RFU, PANK3 / Fold change vs veh, PANK3 / RFU, SH3YL1 / Fold change vs veh, SH3YL1 / RFU, ZEB2 / Fold change vs veh, ZEB2 / RFU, NRIP1 / Fold change vs veh, NRIP1 / RFU, PTTG1IP / Fold change vs veh, PTTG1IP / RFU, CAPN2 / Fold change vs veh, CAPN2 / RFU, MED14 / Fold change vs veh, MED14 / RFU, SNORA58 / Fold change vs veh, SNORA58 / RFU, C1orf63 / Fold change vs veh, C1orf63 / RFU, LRRFIP1 / Fold change vs veh, LRRFIP1 / RFU, NDUFAF7 / Fold change vs veh, NDUFAF7 / RFU, SLC12A2 / Fold change vs veh, SLC12A2 / RFU, IBTK / Fold change vs veh, IBTK / RFU, ESF1 / Fold change vs veh, ESF1 / Fold change vs veh, TMEM50B / RFU, TAOK1 / Fold change vs veh, TAOK1 / RFU, ACBD3 / Fold change vs veh, ACBD3 / RFU, TMA16 / Fold change vs veh, TMA16 / RFU, RWDD3 / Fold change vs veh, RWDD3 / RFU, BCAT1 / Fold change vs veh, BCAT1 / RFU, EDEM3 / Fold change vs veh, EDEM3 / RFU, TMEM33 / Fold change vs veh, TMEM33 / RFU, WDR75 / Fold change vs veh, WDR75 / RFU, AHCTF1 / Fold change vs veh, AHCTF1 / RFU, TFRC / Fold change vs veh, TFRC / RFU, ZDHHC17 / Fold change vs veh, ZDHHC17 / RFU, NOM1 / Fold change vs veh, NOM1 / RFU, ARL8B / Fold change vs veh, ARL8B / RFU, ZBTB11 / Fold change vs veh, ZBTB11 / RFU, TAMM41 / Fold change vs veh, TAMM41 / RFU, KIAA1704 /// LOC100996395 / Fold change vs veh, KIAA1704 /// LOC100996395 / RFU, ING1 / Fold change vs veh, ING1 / RFU, TRMT61B / Fold change vs veh, TRMT61B / RFU, FUBP3 / Fold change vs veh, FUBP3 / RFU, TP53 / Fold change vs veh, TP53 / RFU, TNKS2 / Fold change vs veh, TNKS2 / RFU, ZFP14 / Fold change vs veh, ZFP14 / RFU, ACTR2 / Fold change vs veh, ACTR2 / RFU, PPP3R1 / Fold change vs veh, PPP3R1 / RFU, PIK3R1 / Fold change vs veh, PIK3R1 / RFU, HNRNPA1 / Fold change vs veh, HNRNPA1 / RFU, RNF170 / Fold change vs veh, RNF170 / RFU, ZNF28 / Fold change vs veh, ZNF28 / RFU, RNGTT / Fold change vs veh, RNGTT / RFU, OGT / Fold change vs veh, OGT / RFU, BRD1 / Fold change vs veh, BRD1 / RFU, MARS / Fold change vs veh, MARS / RFU, ZNF655 / Fold change vs veh, ZNF655 / RFU, FAHD1 / Fold change vs veh, FAHD1 / RFU, BDP1 / Fold change vs veh, BDP1 / RFU, LRRCC1 / Fold change vs veh, LRRCC1 / RFU, ARID1A / Fold change vs veh, ARID1A / RFU, ZNF146 / Fold change vs veh, ZNF146 / RFU, ZNF330 / Fold change vs veh, ZNF330 / RFU, GPN3 / Fold change vs veh, GPN3 / RFU, C9orf123 / Fold change vs veh, C9orf123 / RFU, N4BP2L2 / Fold change vs veh, N4BP2L2 / RFU, ARFIP1 / Fold change vs veh, ARFIP1 / RFU, FAM179B / Fold change vs veh, FAM179B / RFU, BCL10 / Fold change vs veh, BCL10 / RFU, UHRF1BP1L / Fold change vs veh, UHRF1BP1L / RFU, BET1 / Fold change vs veh, BET1 / RFU, CNOT2 / Fold change vs veh, CNOT2 / RFU, ZNF268 / Fold change vs veh, ZNF268 / Fold change vs veh, ZNF507 / RFU, DGCR2 / Fold change vs veh, DGCR2 / RFU, WDSUB1 / Fold change vs veh, WDSUB1 / Fold change vs veh, HSP90B1 /// MIR3652 / RFU, ADSS / Fold change vs veh, ADSS / RFU, GK / Fold change vs veh, GK / RFU, ZNF148 / Fold change vs veh, ZNF148 / RFU, TAF9 / Fold change vs veh, TAF9 / RFU, SLC1A5 / Fold change vs veh, SLC1A5 / RFU, SLMO2 / Fold change vs veh, SLMO2 / RFU, ABCC4 / Fold change vs veh, ABCC4 / RFU, LOC101060439 /// RAP1B / Fold change vs veh, LOC101060439 /// RAP1B / RFU, RFX7 / Fold change vs veh, RFX7 / RFU, GTPBP10 / Fold change vs veh, GTPBP10 / RFU, CNEP1R1 / Fold change vs veh, CNEP1R1 / RFU, BIVM-ERCC5 /// ERCC5 / Fold change vs veh, BIVM-ERCC5 /// ERCC5 / RFU, ILF3 / Fold change vs veh, ILF3 / RFU 11762660_at / Fold change /veh 11762660_at / RFU VCAN (11757783_s_at) / Fold change /veh VCAN (11757783_s_at) / RFU DDX43 (11728927_at) / Fold change /veh DDX43 (11728927_at) / RFU KRT8 (11758188_x_at) / Fold change /veh KRT8 (11758188_x_at) / RFU NKD1 (11759106_at) / Fold change /veh NKD1 (11759106_at) / RFU SRD5A1 (11742802_a_at) / Fold change /veh SRD5A1 (11742802_a_at) / RFU TPSAB1 /// TPSB2 (11721975_s_at) / Fold change /veh TPSAB1 /// TPSB2 (11721975_s_at) / RFU GSTM3 (11746129_a_at) / Fold change /veh GSTM3 (11746129_a_at) / RFU IL23R (11737362_x_at) / Fold change /veh IL23R (11737362_x_at) / RFU TMEM51 (11727254_a_at) / Fold change /veh TMEM51 (11727254_a_at) / RFU PIWIL2 (11732686_x_at) / Fold change /veh PIWIL2 (11732686_x_at) / RFU ORM1 (11744905_x_at) / Fold change /veh ORM1 (11744905_x_at) / RFU CCDC152 (11743942_at) / Fold change /veh CCDC152 (11743942_at) / RFU ECM1 (11717891_a_at) / Fold change /veh ECM1 (11717891_a_at) / RFU IL23R (11748794_a_at) / Fold change /veh IL23R (11748794_a_at) / RFU TNFAIP8L3 (11732012_x_at) / Fold change /veh TNFAIP8L3 (11732012_x_at) / RFU MBOAT4 (11741988_at) / Fold change /veh MBOAT4 (11741988_at) / RFU 11764193_at / Fold change /veh 11764193_at / RFU TMEM53 (11763286_at) / Fold change /veh TMEM53 (11763286_at) / RFU MAGEB2 (11727129_at) / Fold change /veh MAGEB2 (11727129_at) / RFU TMEM200A (11744735_a_at) / Fold change /veh TMEM200A (11744735_a_at) / RFU CCDC152 (11751479_a_at) / Fold change /veh CCDC152 (11751479_a_at) / RFU FAM211A (11726209_a_at) / Fold change /veh FAM211A (11726209_a_at) / RFU RGS16 (11746705_a_at) / Fold change /veh RGS16 (11746705_a_at) / RFU VCAN (11755009_s_at) / Fold change /veh VCAN (11755009_s_at) / RFU RHOB (11743442_s_at) / Fold change /veh RHOB (11743442_s_at) / RFU RGS16 (11720943_a_at) / Fold change /veh RGS16 (11720943_a_at) / RFU RGS16 (11720944_at) / Fold change /veh RGS16 (11720944_at) / RFU, VPS4B / Fold change vs veh, VPS4B / RFU, CREB1 / Fold change vs veh, CREB1 / RFU, DNAJC13 / Fold change vs veh, DNAJC13 / RFU, GNAQ / Fold change vs veh, GNAQ / RFU, CDK5R1 / Fold change vs veh, CDK5R1 / RFU, ZRANB3 / Fold change vs veh, ZRANB3 / RFU, CUL4A / Fold change vs veh, CUL4A / RFU, CCNY / Fold change vs veh, CCNY / RFU, UFL1 / Fold change vs veh, UFL1 / RFU, COG3 / Fold change vs veh, COG3 / RFU, DIAPH2 / Fold change vs veh, DIAPH2 / RFU, SKA2 / Fold change vs veh, SKA2 / RFU, AFF3 / Fold change vs veh, AFF3 / RFU, LMF1 / Fold change vs veh, LMF1 / RFU, IPO11 / Fold change vs veh, IPO11 / RFU, DFFB / Fold change vs veh, DFFB / RFU, FOXP1 / Fold change vs veh, FOXP1 / RFU, CARD8 / Fold change vs veh, CARD8 / RFU, STRN3 / Fold change vs veh, STRN3 / RFU, ADK / Fold change vs veh, ADK / RFU, RASSF2 / Fold change vs veh, RASSF2 / RFU, WIPF1 / Fold change vs veh, WIPF1 / RFU, LARP1B / Fold change vs veh, LARP1B / RFU, RASA1 / Fold change vs veh, RASA1 / RFU, RB1 / Fold change vs veh, RB1 / RFU, PPFIA1 / Fold change vs veh, PPFIA1 / RFU, MAT2A / Fold change vs veh, MAT2A / RFU, CCT5 / Fold change vs veh, CCT5 / RFU, WDR92 / Fold change vs veh, WDR92 / RFU, CUX1 / Fold change vs veh, CUX1 / RFU, TTC7A / Fold change vs veh, TTC7A / RFU, TMEM135 / Fold change vs veh, TMEM135 / RFU, DEPTOR / Fold change vs veh, DEPTOR / RFU, CPM / Fold change vs veh, CPM / RFU, DNAJB6 / Fold change vs veh, DNAJB6 / RFU, CACNA2D3 / Fold change vs veh, CACNA2D3 / RFU, DTX4 / Fold change vs veh, DTX4 / RFU, TFCP2 / Fold change vs veh, TFCP2 / RFU, GMCL1 /// GMCL1P1 / Fold change vs veh, GMCL1 /// GMCL1P1 / RFU, AEBP2 / Fold change vs veh, AEBP2 / RFU, SNHG1 /// SNORD22 /// SNORD25 /// SNORD26 /// SNORD27 /// SNORD28 /// SNORD29 /// SNORD31 / Fold change vs veh, SNHG1 /// SNORD22 /// SNORD25 /// SNORD26 /// SNORD27 /// SNORD28 /// SNORD29 /// SNORD31 / Fold change (Aza/veh), C12orf56 (ProbeSet 11735607_a_at) / Fold change (ACY-1035/veh), C12orf56 (ProbeSet 11735607_a_at) / Fold change (Aza/veh), FGFR1OP (ProbeSet 11751329_s_at) / Fold change (ACY-1035/veh), FGFR1OP (ProbeSet 11751329_s_at) / Fold change (Aza/veh), VPS36 (ProbeSet 11739960_a_at) / Fold change (ACY-1035/veh), VPS36 (ProbeSet 11739960_a_at) / RFU SYPL1 (11715823_x_at) / Fold change /veh SYPL1 (11715823_x_at) / RFU IGFBP7 (11715501_s_at) / Fold change /veh IGFBP7 (11715501_s_at) / RFU REEP3 (11722064_at) / Fold change /veh REEP3 (11722064_at) / RFU IGLL1 (11728026_x_at) / Fold change /veh IGLL1 (11728026_x_at): dose or concentration left out as unconfirmed
# Conditions: ProbeSet 11720269_a_at; LIST B
smiles,measurement,value
Nc1ncn([C@@H]2O[C@H](CO)[C@@H](O)[C@H]2O)c(=O)n1 [azacitidine],"RFU, IBTK",763.53 RFU
